Legend:
Experiment in all cases: combination Emax (second highest fraction inhibited in the dose matrix, 72 h); higher = more inhibition; extreme values may be limits of the assay
8-MG-BA (Glioblastoma) = test system: 8-MG-BA (Glioblastoma)
Summary of the method: (§1)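 Cell lines grown in DMEM/F12 or RPMI with 10% FBS were plated in 1536-well plates and held 24 hours at 37°C, 5% CO2 before 72 hours of exposure to two-drug dose matrices, with DMSO typically at 0.2%. CellTiter-Glo 2.0 luminescence gave viability, which was converted to inhibition. Vehicle wells were set to 0 and blank wells to 1. Combination Emax is the second-highest inhibition in the matrix, and Bliss excess is the observed combination effect minus the expected EA + EB − EA·EB, where EA and EB are the single-agent effects.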

[1] = test system: A549 (Lung Adenocarcinoma)
Summary of the method: as §1

ARH-77 (Non-Cancerous) = test system: ARH-77 (Non-Cancerous)
Summary of the method: as §1

[2] = test system: BICR22 (Oral Cavity Carcinoma)
Summary of the method: as §1

[3] = test system: ECC10 (Gastric Carcinoma)
Summary of the method: as §1

GI-ME-N (Neuroblastoma) = test system: GI-ME-N (Neuroblastoma)
Summary of the method: as §1

[4] = test system: JSC-1 (B-Cell Non-Hodgkin's Lymphoma)
Summary of the method: as §1

[5] = test system: NCI-H1650 (Lung Adenocarcinoma)
Summary of the method: as §1

[6] = test system: NCI-H1666 (Lung Adenocarcinoma)
Summary of the method: as §1

[7] = test system: NCI-H2141 (Small Cell Lung Carcinoma)
Summary of the method: as §1

NCI-H2591 (Mesothelioma) = test system: NCI-H2591 (Mesothelioma)
Summary of the method: as §1

[8] = test system: NCI-H64 (Small Cell Lung Carcinoma)
Summary of the method: as §1

NY (Osteosarcoma) = test system: NY (Osteosarcoma)
Summary of the method: as §1

[9] = test system: ONS-76 (Other Solid Carcinomas)
Summary of the method: as §1

[10] = test system: OS-RC-2 (Kidney Carcinoma)
Summary of the method: as §1

[11] = test system: PANC-10-05 (Pancreatic Carcinoma)
Summary of the method: as §1

[12] = test system: SK-MES-1 (Squamous Cell Lung Carcinoma)
Summary of the method: as §1

[13] = test system: SK-MG-1 (Low Grade Glioma)
Summary of the method: as §1

[14] = test system: TT2609-C02 (Thyroid Gland Carcinoma)
Summary of the method: as §1

U-2-OS (Osteosarcoma) = test system: U-2-OS (Osteosarcoma)
Summary of the method: as §1

Row | Structure (SMILES) | combination Emax (8-MG-BA (Glioblastoma)) | combination Emax [1] | combination Emax (ARH-77 (Non-Cancerous)) | combination Emax [2] | combination Emax [3] | combination Emax (GI-ME-N (Neuroblastoma)) | combination Emax [4] | combination Emax [5] | combination Emax [6] | combination Emax [7] | combination Emax (NCI-H2591 (Mesothelioma)) | combination Emax [8] | combination Emax (NY (Osteosarcoma)) | combination Emax [9] | combination Emax [10] | combination Emax [11] | combination Emax [12] | combination Emax [13] | combination Emax [14] | combination Emax (U-2-OS (Osteosarcoma))
1 | NC1(C(=O)N[C@@H](CCO)c2ccc(Cl)cc2)CCN(c2ncnc3[nH]ccc23)CC1 [Capivasertib] + CC(C)n1c(=O)n(C)c2cnc3cc(F)c(-c4ccc(OCCCN5CCCCC5)nc4)cc3c21 [AZD1390] (first compound max 10 µM, 7x7, partner max 0.3 µM) | 0.387 | 0.59 | 0.657 | 0.312 | 0.274 | 0.335 | 0.364 | 0.317 | 0.31 | 0.249 | 0.182 | 0.251 | 0.309 | 0.386 | 0.401 | 0.416 | 0.237 | 0.519 | 0.167 | 0.288
2 | CN(CCO)CC[C@H](CSc1ccccc1)Nc1ccc(S(=O)(=O)NC(=O)c2ccc(N3CCC([C@@H](O)c4ccccc4-c4ccc(Cl)cc4)CC3)cc2)cc1S(=O)(=O)C(F)(F)F [AZD4320] + C[C@@H]1COCCN1C2=NC(=NC(=C2)C3(CC3)[S@](=N)(=O)C)C4=C5C=CNC5=NC=C4 [AZD6738] (first compound max 1 µM, 7x7, partner max 10 µM) | 0.864 | 0.777 | 1 | 0.897 | 1 | 0.499 | 0.888 | 0.532 | 0.418 | 0.943 | 0.612 | 0.99 | 0.903 | 0.877 | 0.517 | 0.504 | 0.904 | 0.644 | 0.25 | 0.724
3 | NC1(C(=O)N[C@@H](CCO)c2ccc(Cl)cc2)CCN(c2ncnc3[nH]ccc23)CC1 [Capivasertib] + CC(=O)c1c(C)c2cnc(Nc3ccc(N4CCNCC4)cn3)nc2n(C2CCCC2)c1=O [Palbociclib] (first compound max 10 µM, 7x7, partner max 10 µM) | 0.597 | 0.764 | 0.705 | 0.329 | 0.506 | 0.422 | 0.669 | 0.351 | 0.382 | 0.299 | 0.364 | 0.332 | 0.161 | 0.557 | 0.454 | 0.49 | 0.5 | 0.62 | 0.376 | 0.408
4 | CC1(C)CCC(CN2CCN(c3ccc(C(=O)NS(=O)(=O)c4ccc(NCC5CCOCC5)c([N+](=O)[O-])c4)c(Oc4cnc5[nH]ccc5c4)c3)CC2)=C(c2ccc(Cl)cc2)C1 [Venetoclax] + CN(C)CCCOc1ccc(-c2ccc3ncc4c(c3c2)n(C2CCOCC2)c(=O)n4C)cn1 [AZD0156] (first compound max 1 µM, 7x7, partner max 1 µM) | 0.171 | 0.28 | 0.297 | 0.337 | 0.963 | 0.226 | 0.141 | 0.104 | 0.225 | 0.148 | 0.161 | 0.25 | 0.551 | 0.725 | 0.249 | 0.229 | 0.216 | 0.275 | 0.154 | 0.188
5 | CC(=O)Nc1cccc(-n2c(=O)n(C3CC3)c(=O)c3c(Nc4ccc(I)cc4F)n(C)c(=O)c(C)c32)c1 [Trametinib] + Cc1nc(-c2cn3c(n2)-c2ccc(-c4cnn(C(C)(C)C(N)=O)c4)cc2OCC3)n(C(C)C)n1 [Taselisib] (first compound max 1 µM, 7x7, partner max 10 µM) | 0.863 | 1 | 0.776 | 1 | 0.989 | 0.77 | 0.631 | 0.695 | 0.988 | 0.317 | 0.543 | 0.477 | 0.747 | 0.975 | 0.627 | 0.838 | 1 | 0.85 | 0.821 | 1
6 | Cn1cnc2c(F)c(Nc3ccc(Br)cc3Cl)c(C(=O)NOCCO)cc21 [Selumetinib] + C=CCn1c(=O)c2cnc(Nc3ccc(N4CCN(C)CC4)cc3)nc2n1-c1cccc(C(C)(C)O)n1 [AZD1775] (first compound max 10 µM, partner max 1 µM) | 0.797 | 0.779 | 0.979 | 0.523 | 0.774 | 0.209 | 0.945 | 0.34 | 0.538 | 0.547 | 0.309 | 0.858 | 0.527 | 0.682 | 0.244 | 0.546 | 0.631 | 0.449 | 0.655 | 0.699
7 | CS(=O)(=O)CCNCc1ccc(-c2ccc3ncnc(Nc4ccc(OCc5cccc(F)c5)c(Cl)c4)c3c2)o1 [Lapatinib] + C[C@@H](Oc1cc(-c2cnn(C3CCNCC3)c2)cnc1N)c1c(Cl)ccc(F)c1Cl [Crizotinib] (first compound max 10 µM, 7x7, partner max 10 µM) | 0.998 | 0.988 | 0.942 | 0.933 | 0.97 | 0.392 | 0.925 | 0.799 | 0.833 | 0.795 | 0.572 | 0.823 | 0.341 | 0.73 | 0.584 | 0.675 | 0.966 | 0.9 | 0.476 | 0.486
8 | Cc1nc(Nc2ncc(C(=O)Nc3c(C)cccc3Cl)s2)cc(N2CCN(CCO)CC2)n1 [Dasatinib] + CC(=O)Nc1cccc(-n2c(=O)n(C3CC3)c(=O)c3c(Nc4ccc(I)cc4F)n(C)c(=O)c(C)c32)c1 [Trametinib] (first compound max 2 µM, 7x7, partner max 1 µM) | 0.756 | 0.97 | 0.635 | 0.615 | 0.856 | 0.49 | 0.543 | 0.419 | 0.651 | 0.129 | 0.527 | 0.185 | 0.738 | 0.888 | 0.353 | 0.877 | 0.941 | 0.65 | 0.748 | 0.9
9 | CN(CCO)CC[C@H](CSc1ccccc1)Nc1ccc(S(=O)(=O)NC(=O)c2ccc(N3CCC([C@@H](O)c4ccccc4-c4ccc(Cl)cc4)CC3)cc2)cc1S(=O)(=O)C(F)(F)F [AZD4320] + Cn1cnc2c(F)c(Nc3ccc(Br)cc3Cl)c(C(=O)NOCCO)cc21 [Selumetinib] (first compound max 1 µM, 7x7, partner max 3 µM) | 0.367 | 0.671 | 0.896 | 0.721 | 1 | 0.345 | 0.707 | 0.318 | 0.697 | 0.893 | 0.242 | 0.988 | 0.556 | 0.628 | 0.347 | 0.479 | 0.472 | 0.441 | 0.546 | 0.516
10 | Cc1c2c(nn1C)CSCc1cc(n(C)n1)CSc1cc(c3ccccc3c1)OCCCc1c(C(=O)O)n(C)c3c-2c(Cl)ccc13 [AZD5991] + C1CN(CCC1(C(=O)N[C@@H](CCO)C2=CC=C(C=C2)Cl)N)C3=NC=NC4=C3C=CN4 [Capivasertib] (first compound max 1 µM, 7x7, partner max 3 µM) | 0.85 | 0.379 | 0.915 | 0.689 | 0.721 | 0.27 | 1 | 0.41 | 0.274 | 0.314 | 0.191 | 0.378 | 0.492 | 0.249 | 0.256 | 0.357 | 0.262 | 0.444 | 0.227 | 0.219
11 | CC1(C)CCC(CN2CCN(c3ccc(C(=O)NS(=O)(=O)c4ccc(NCC5CCOCC5)c([N+](=O)[O-])c4)c(Oc4cnc5[nH]ccc5c4)c3)CC2)=C(c2ccc(Cl)cc2)C1 [Venetoclax] + C[C@@H]1COCCN1C2=NC(=NC(=C2)C3(CC3)[S@](=N)(=O)C)C4=C5C=CNC5=NC=C4 [AZD6738] (first compound max 1 µM, 7x7, partner max 10 µM) | 0.792 | 0.716 | 0.961 | 0.768 | 0.98 | 0.459 | 0.882 | 0.402 | 0.424 | 0.637 | 0.329 | 0.882 | 0.708 | 0.865 | 0.399 | 0.53 | 0.75 | 0.535 | 0.317 | 0.586
12 | C=CCn1c(=O)c2cnc(Nc3ccc(N4CCN(C)CC4)cc3)nc2n1-c1cccc(C(C)(C)O)n1 [AZD1775] + O=C(c1cc(Cc2n[nH]c(=O)c3ccccc23)ccc1F)N1CCN(C(=O)C2CC2)CC1 [Olaparib] (first compound max 1 µM, partner max 10 µM) | 0.77 | 0.458 | 0.929 | 0.508 | 0.796 | 0.337 | 0.856 | 0.403 | 0.335 | 0.528 | 0.253 | 0.869 | 0.578 | 0.662 | 0.298 | 0.465 | 0.5 | 0.572 | 0.358 | 0.637
